Measurements: paper PMC12445692 (2025)

What was measured:
[1] = test system: 5'-Cy5 hTERT (DNA, G4) GGGTTAGGGTTAGGGTTAGGGTTAGGGTTAG; assay: fluorescence polarization, single-site fit; conditions: K+ (20 mM potassium phosphate, 80 mM KCl); pH 7.4, room temperature, 20 nM DNA; ligand 0-2 μM
[2] = test system: MYC G4 (Myc2345_T23) (DNA, G4) TGAGGGTGGGTAGGGTGGGTAA; assay: ESI mass spectrometry; conditions: K+ (20 mM potassium phosphate, 80 mM KCl); pH 7.4, 100 μM DNA
[3] = test system: 5'-Cy5 KRAS (DNA, G4) AGGGCGGTGTGGGAAGAGGGAAGAGGGGGAGGCAG; assay: fluorescence polarization, single-site fit; conditions: K+ (20 mM potassium phosphate, 80 mM KCl); pH 7.4, room temperature, 20 nM DNA; ligand 0-2 μM
[4] = test system: Myc2345 (DNA, G4) TGAGGGTGGGTAGGGTGGGGAA; assay: 1H NMR titration and 15N HSQC
[5] = test system: Myc2345 (DNA, G4) TGAGGGTGGGTAGGGTGGGGAA; assay: ESI mass spectrometry; conditions: K+ (20 mM potassium phosphate, 80 mM KCl); pH 7.4, 100 μM DNA
[6] = test system: NHE III1 (DNA, G4) TGGGGAGGGTGGGGAGGGTGGGGAAGG; assay: differential scanning calorimetry; conditions: 100 μM DNA, DNA:ligand 1:4 (400 μM BTO-28), 1.0°C/min
[7] = test system: MYC G4 (Myc2345_T23) (DNA, G4) TGAGGGTGGGTAGGGTGGGTAA; assay: differential scanning calorimetry; conditions: 100 μM DNA, DNA:ligand 1:4 (400 μM BTO-28), 1.0°C/min
[8] = test system: 3'-Cy5 MYC G4 (DNA, G4) TGAGGGTGGGTAGGGTGGGTAA; assay: fluorescence polarization, single-site fit; conditions: K+ (20 mM potassium phosphate, 80 mM KCl); pH 7.4, room temperature, 20 nM DNA; weaker than 5' end
[9] = test system: Myc2345 (DNA, G4) TGAGGGTGGGTAGGGTGGGGAA; assay: differential scanning calorimetry; conditions: 100 μM DNA, DNA:ligand 1:4 (400 μM BTO-28), 1.0°C/min
[10] = test system: 5'-Cy5 KIT (DNA, G4) GGGAGGGAGGGCGCTGGGAGGAGGG; assay: fluorescence polarization, single-site fit; conditions: K+ (20 mM potassium phosphate, 80 mM KCl); pH 7.4, room temperature, 20 nM DNA; ligand 0-2 μM
[11] = test system: 5'-Cy5 MYC G4 (DNA, G4) TGAGGGTGGGTAGGGTGGGTAA; assay: fluorescence polarization, single-site fit; conditions: K+ (20 mM potassium phosphate, 80 mM KCl); pH 7.4, room temperature, 20 nM DNA; high-affinity site; Cy5 end not given, 5' inferred
[12] = test system: dsDNA (DNA, duplex) CAATCGGATCGAATTCGATCCGATTG; assay: differential scanning calorimetry; conditions: 100 μM DNA, DNA:ligand 1:4 (400 μM BTO-28), 1.0°C/min
[13] = test system: 5'-Cy5 RET (DNA, G4) GGGGCGGGGCGGGGCGGGGG; assay: fluorescence polarization, single-site fit; conditions: K+ (20 mM potassium phosphate, 80 mM KCl); pH 7.4, room temperature, 20 nM DNA; ligand 0-2 μM
[14] = test system: 5'-Cy5 dsDNA (DNA, duplex) CAATCGGATCGAATTCGATCCGATTG; assay: fluorescence polarization, single-site fit; conditions: K+ (20 mM potassium phosphate, 80 mM KCl); pH 7.4, room temperature, 20 nM DNA; ligand 0-2 μM
[15] = test system: MYC G4 (Myc2345_T23) (DNA, G4) TGAGGGTGGGTAGGGTGGGTAA; assay: NMR solution structure; conditions: K+ (2 mM potassium phosphate, 8 mM KCl); pH 7.4, 298 K

KD [1]: > 2 µM
binding [2]: yes
KD [3]: 0.67 ± 0.03509 µM
binding [4]: yes
binding [5]: yes
binding [6]: yes
ΔTm [7]: 25.6 °C
KD [8]: 0.0898 ± 0.00507 µM
ΔTm [9]: 26.0 °C
KD [10]: 1.246 ± 0.07791 µM
KD [11]: 0.0068 µM
ΔTm [12]: -4.3 °C
KD [13]: > 2 µM
KD [14]: > 2 µM
binding [15]: yes
Compound: Cc1cc(/C=C2\Sc3ccccc3N2CCCN2CCCC2)c2ccccc2[n+]1C
